Results published in the NIST ThermoML archive (doi:10.1021/je060271a).

Settings: 323.15 K, Liquid, Vibrating tube method

CCCCCCCC(=O)OCC(COC(=O)CCCCCCC)(COC(=O)CCCCCCC)COC(=O)CCCCCCC [pentaerythritol tetraoctanoate]
Settings | mass density [kg/m3]
16301 kPa | 951.3
16330 kPa | 951.2
16376 kPa | 951.3
16399 kPa | 951.4
16422 kPa | 951.4
16451 kPa | 951.3
16486 kPa | 951.5
16514 kPa | 951.3
16560 kPa | 951.4
16590 kPa | 951.6
16619 kPa | 951.6
16654 kPa | 951.5
16683 kPa | 951.5
16714 kPa | 951.6
16744 kPa | 951.6
16780 kPa | 951.7
16810 kPa | 951.5
16846 kPa | 951.5
16876 kPa | 951.7
16907 kPa | 951.6
16937 kPa | 951.7
16974 kPa | 951.6
17005 kPa | 951.8
17037 kPa | 951.9
17074 kPa | 951.8
17106 kPa | 951.8
17140 kPa | 951.8
17172 kPa | 951.9
17203 kPa | 951.8
17241 kPa | 951.9
17266 kPa | 951.9
17311 kPa | 951.8
17344 kPa | 951.9
17376 kPa | 951.9
17414 kPa | 952
17448 kPa | 951.9
17480 kPa | 952
17513 kPa | 951.9
17554 kPa | 952
17583 kPa | 952.2
17622 kPa | 952.1
17656 kPa | 952.1
17696 kPa | 952.2
17730 kPa | 952.1
17763 kPa | 952.1
17797 kPa | 952.3
17838 kPa | 952.3
17872 kPa | 952.2
17907 kPa | 952.2
17948 kPa | 952.3
17984 kPa | 952.3
18019 kPa | 952.4
18055 kPa | 952.5
18097 kPa | 952.4
18132 kPa | 952.3
18168 kPa | 952.3
18210 kPa | 952.5
18246 kPa | 952.5
18282 kPa | 952.4
18325 kPa | 952.6
18361 kPa | 952.5
18398 kPa | 952.7
18442 kPa | 952.6
18479 kPa | 952.7
18516 kPa | 952.6
18554 kPa | 952.7
18599 kPa | 952.7
18637 kPa | 952.7
18682 kPa | 952.7
18720 kPa | 952.8
18758 kPa | 952.8
18796 kPa | 952.7
18843 kPa | 952.9
18882 kPa | 952.8
18922 kPa | 952.9
18970 kPa | 953
19012 kPa | 953
19056 kPa | 953
19097 kPa | 953
19139 kPa | 953.1
19166 kPa | 952.9
19197 kPa | 953.2
19223 kPa | 953.1
19250 kPa | 953.1
19282 kPa | 953
19308 kPa | 953.1
19341 kPa | 953.3
19368 kPa | 953.2
19395 kPa | 953.2
19422 kPa | 953.3
19456 kPa | 953.2
19483 kPa | 953.2
19511 kPa | 953.2
19543 kPa | 953.4
19571 kPa | 953.3
19603 kPa | 953.2
19632 kPa | 953.3
19660 kPa | 953.4
19688 kPa | 953.4
19722 kPa | 953.4
19750 kPa | 953.4
19778 kPa | 953.4
19812 kPa | 953.4
19842 kPa | 953.6
19871 kPa | 953.4
19905 kPa | 953.5
19934 kPa | 953.4
19962 kPa | 953.5
19997 kPa | 953.5
20055 kPa | 953.4
20090 kPa | 953.6
20119 kPa | 953.6
20149 kPa | 953.7
20185 kPa | 953.7
20216 kPa | 953.7
20246 kPa | 953.7
20276 kPa | 953.7
20307 kPa | 953.8
20343 kPa | 953.7
20373 kPa | 953.7
20404 kPa | 953.7
20441 kPa | 953.8
20471 kPa | 953.8
20502 kPa | 953.9
20538 kPa | 953.8
20570 kPa | 954
20601 kPa | 953.9
20634 kPa | 954
20667 kPa | 954
20705 kPa | 954
20736 kPa | 954
20767 kPa | 954
20805 kPa | 954.1
20836 kPa | 954.1
20868 kPa | 954
20906 kPa | 954
20938 kPa | 954.2
20970 kPa | 954.1
21008 kPa | 954.2
21041 kPa | 954.1
21074 kPa | 954.1
21107 kPa | 954.2
21146 kPa | 954.2
21178 kPa | 954.1
21218 kPa | 954.3
21251 kPa | 954.4
21284 kPa | 954.4
21324 kPa | 954.4
21358 kPa | 954.4
21391 kPa | 954.4
21431 kPa | 954.4
21466 kPa | 954.4
21500 kPa | 954.5
21542 kPa | 954.5
21576 kPa | 954.5
21604 kPa | 954.5
21646 kPa | 954.4
21680 kPa | 954.7
21722 kPa | 954.6
21756 kPa | 954.6
21798 kPa | 954.5
21832 kPa | 954.6
21946 kPa | 954.8
21982 kPa | 954.6
22025 kPa | 954.7
22061 kPa | 954.8
22097 kPa | 954.7
22134 kPa | 954.9
22178 kPa | 954.9
22215 kPa | 954.9
22259 kPa | 954.9
22295 kPa | 955
22325 kPa | 954.9
22369 kPa | 954.9
22414 kPa | 955
22451 kPa | 955.1
22490 kPa | 955.1
22537 kPa | 955.1
22576 kPa | 955
22616 kPa | 955.2
22664 kPa | 955.1
22705 kPa | 955.3
22743 kPa | 955.2
22780 kPa | 955.2
22834 kPa | 955.5
22861 kPa | 955.3
22894 kPa | 955.3
22922 kPa | 955.3
22950 kPa | 955.3
22983 kPa | 955.3
23011 kPa | 955.4
23038 kPa | 955.4
23066 kPa | 955.4
23100 kPa | 955.3
23127 kPa | 955.5
23161 kPa | 955.5
23189 kPa | 955.5
23217 kPa | 955.6
23250 kPa | 955.5
23279 kPa | 955.6
23308 kPa | 955.5
23344 kPa | 955.5
23372 kPa | 955.7
23400 kPa | 955.5
23429 kPa | 955.7
23464 kPa | 955.7
23492 kPa | 955.6
23521 kPa | 955.6
23556 kPa | 955.6
23585 kPa | 955.8
23614 kPa | 955.8
23649 kPa | 955.8
23679 kPa | 955.8
23709 kPa | 955.9
23740 kPa | 955.8
23769 kPa | 955.8
23804 kPa | 955.8
23834 kPa | 955.8
23869 kPa | 955.8
23899 kPa | 955.9
23929 kPa | 955.9
23965 kPa | 955.9
23995 kPa | 955.9
24025 kPa | 955.9
24062 kPa | 956
24092 kPa | 955.9
24124 kPa | 955.9
24161 kPa | 956
24191 kPa | 956.2
24223 kPa | 956.1
24260 kPa | 956.1
24291 kPa | 956
24322 kPa | 956.2
24354 kPa | 956.1
24391 kPa | 956.2
24422 kPa | 956.1
24460 kPa | 956.2
24491 kPa | 956.3
24523 kPa | 956.3
24562 kPa | 956.3
24594 kPa | 956.3
24626 kPa | 956.3
24658 kPa | 956.4
24696 kPa | 956.4
24728 kPa | 956.4
24766 kPa | 956.4
24799 kPa | 956.4
24832 kPa | 956.5
24871 kPa | 956.5
24903 kPa | 956.5
24936 kPa | 956.6
24976 kPa | 956.5
25008 kPa | 956.6
25042 kPa | 956.6
25075 kPa | 956.5
25115 kPa | 956.5
25149 kPa | 956.7
25188 kPa | 956.6
25222 kPa | 956.6
25256 kPa | 956.7
25290 kPa | 956.7
25330 kPa | 956.6
25364 kPa | 956.7
25398 kPa | 956.8
25439 kPa | 956.8
25474 kPa | 956.8
25509 kPa | 956.8
25550 kPa | 956.8
25584 kPa | 957
25619 kPa | 956.9
25654 kPa | 957
25695 kPa | 957
25729 kPa | 956.9
25771 kPa | 957
25806 kPa | 957.1
25842 kPa | 957.1
25878 kPa | 957.1
25920 kPa | 957.1
25957 kPa | 957
25993 kPa | 957.2
26028 kPa | 957.1
26071 kPa | 957.1
26107 kPa | 957.1
26150 kPa | 957.2
26186 kPa | 957.2
26223 kPa | 957.3
26259 kPa | 957.3
26303 kPa | 957.3
26340 kPa | 957.2
26384 kPa | 957.3
26421 kPa | 957.5
26460 kPa | 957.3
26498 kPa | 957.4
26535 kPa | 957.4
26579 kPa | 957.5
